According to US20230257372A1 (CHONG KUN DANG PHARMACEUTICAL CORP., priority 2020, published 2023):
Like-named read-outs stand apart in the source and are kept apart here.

Experiments:
human recombinant HDAC1 = target: T1, human recombinant HDAC1 (Homo sapiens, UniProt Q13547); assay: HDAC1 enzyme activity inhibition (HDAC Fluorimetric Drug Discovery Kit); format: biochemical; conditions: read-out: HDAC1
T1 construct: purchased Enzo Life Science, Inc. BML-SE456
Experimental: (§1) An experiment was conducted to identify the selectivity of the compound represented by formula I of the present invention to HDAC6 through an experiment on HDAC1 and HDAC6 enzyme activity inhibition.
(§2) A 5-fold dilution of the compound was divided into a 96-well plate, after which […] of the enzyme and 10 μM of the substrate were inserted into each well and subjected to reaction at 30° C. for 60 minutes, such that Fluor de Lys® Developer II (BML-KI176) was inserted thereinto and subjected to reaction for 30 minutes and finished.

human recombinant HDAC6 = target: T2, human recombinant HDAC6 (Homo sapiens, UniProt Q9UBN7); assay: HDAC6 enzyme activity inhibition (HDAC Fluorimetric Drug Discovery Kit); format: biochemical
T2 construct: purchased Calbiochem Inc. 382180
T2 sequence (Q9UBN7 1-1215): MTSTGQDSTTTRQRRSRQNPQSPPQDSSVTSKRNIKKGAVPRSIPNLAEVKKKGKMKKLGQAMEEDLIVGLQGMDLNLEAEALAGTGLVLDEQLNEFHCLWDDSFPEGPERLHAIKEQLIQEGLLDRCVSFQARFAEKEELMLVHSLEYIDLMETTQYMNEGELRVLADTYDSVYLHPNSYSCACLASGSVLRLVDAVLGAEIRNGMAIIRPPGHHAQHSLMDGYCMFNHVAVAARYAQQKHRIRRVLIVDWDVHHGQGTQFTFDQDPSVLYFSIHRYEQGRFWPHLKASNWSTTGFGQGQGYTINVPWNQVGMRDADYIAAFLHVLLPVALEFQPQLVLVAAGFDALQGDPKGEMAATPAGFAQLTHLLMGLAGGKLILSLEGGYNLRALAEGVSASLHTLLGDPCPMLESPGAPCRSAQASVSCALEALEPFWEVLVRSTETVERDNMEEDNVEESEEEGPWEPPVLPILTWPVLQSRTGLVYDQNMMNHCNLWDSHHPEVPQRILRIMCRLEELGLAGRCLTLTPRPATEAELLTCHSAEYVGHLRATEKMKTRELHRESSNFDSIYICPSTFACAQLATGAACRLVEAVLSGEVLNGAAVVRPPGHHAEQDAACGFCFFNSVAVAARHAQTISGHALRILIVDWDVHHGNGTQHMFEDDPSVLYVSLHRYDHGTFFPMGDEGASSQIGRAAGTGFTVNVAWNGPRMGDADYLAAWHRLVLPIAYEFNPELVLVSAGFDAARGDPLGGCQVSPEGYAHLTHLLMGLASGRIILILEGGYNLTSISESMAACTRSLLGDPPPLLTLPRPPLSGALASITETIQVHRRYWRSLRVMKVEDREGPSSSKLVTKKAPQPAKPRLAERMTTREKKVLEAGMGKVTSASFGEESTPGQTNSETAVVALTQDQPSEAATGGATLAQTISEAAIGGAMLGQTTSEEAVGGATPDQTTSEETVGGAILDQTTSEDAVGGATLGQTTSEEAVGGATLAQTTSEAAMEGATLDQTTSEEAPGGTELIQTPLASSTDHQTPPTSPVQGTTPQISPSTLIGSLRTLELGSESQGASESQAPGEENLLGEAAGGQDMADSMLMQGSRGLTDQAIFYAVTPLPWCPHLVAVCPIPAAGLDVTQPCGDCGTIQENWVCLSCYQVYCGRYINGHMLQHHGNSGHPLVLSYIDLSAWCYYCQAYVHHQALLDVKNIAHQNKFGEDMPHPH
Experimental: as §1, §2

[1] = human recombinant HDAC1, IC50 calculated with GraphPad Prism
[2] = human recombinant HDAC6, IC50 calculated with GraphPad Prism
[3] = human recombinant HDAC1, Fluor de Lys substrate, 30° C. 60 minutes
[4] = human recombinant HDAC6, same protocol as HDAC1

T1 sequence (Q13547 whole entry): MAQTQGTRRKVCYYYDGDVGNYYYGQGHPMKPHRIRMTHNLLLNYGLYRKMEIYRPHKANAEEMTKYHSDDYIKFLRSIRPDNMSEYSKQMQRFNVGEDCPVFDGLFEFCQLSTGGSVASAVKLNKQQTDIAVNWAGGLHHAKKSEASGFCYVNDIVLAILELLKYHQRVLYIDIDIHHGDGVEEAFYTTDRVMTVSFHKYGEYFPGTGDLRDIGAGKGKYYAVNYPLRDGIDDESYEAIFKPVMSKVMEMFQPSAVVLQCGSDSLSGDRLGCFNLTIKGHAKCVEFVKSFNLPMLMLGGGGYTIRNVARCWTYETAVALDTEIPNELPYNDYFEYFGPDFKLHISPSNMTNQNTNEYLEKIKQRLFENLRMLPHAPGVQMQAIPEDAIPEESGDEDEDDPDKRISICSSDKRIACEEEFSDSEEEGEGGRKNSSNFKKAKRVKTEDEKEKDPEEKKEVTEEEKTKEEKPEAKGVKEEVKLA

CC(C)(C)OC(=O)N1CCC(Cc2cn(Cc3ccc(-c4nnc(C(F)F)o4)cn3)nn2)CC1 [Compound 4000, Tert-butyl 4-((1-((5-(5-(difluoromethyl)-1,3,4-oxadiazol-2-yl)pyridin-2-yl)methyl)-1H-1,2,3-triazol-4-yl)methyl)piperidin-1-carboxylate]
IC50 (human recombinant HDAC1; [1]): > 50000 nM
HDAC6 selectivity (fold) (human recombinant HDAC6; HDAC1 IC50 / HDAC6 IC50): 145 fold
IC50 (human recombinant HDAC6; [2]): 343 nM

Fc1cc(-c2nnc(C(F)F)o2)ccc1Cn1cc(-c2ccccc2CNC2COC2)nn1 [Compound 4590, N-(2-(1-(4-(5-(difluoromethyl)-1,3,4-oxadiazol-2-yl)-2-fluorobenzyl)-1H-1,2,3-triazol-4-yl)benzyl)oxetan-3-amine]
IC50 (human recombinant HDAC1; [3]): > 50000 nM
HDAC6 selectivity (fold) (human recombinant HDAC6; HDAC6 over HDAC1): 308 fold
IC50 (human recombinant HDAC6; [4]): 162 nM

CN1CCC(c2cccc(-c3cn(Cc4ccc(-c5nnc(C(F)F)o5)cc4F)nn3)c2)CC1 [Compound 4290, 2-(difluoromethyl)-5-(3-fluoro-4-((4-(3-(1-methylpiperidin-4-yl)phenyl)-1H-1,2,3-triazol-1-yl)methyl)phenyl)-1,3,4-oxadiazole]
IC50 (human recombinant HDAC1; [1]): > 50000 nM
HDAC6 selectivity (fold) (human recombinant HDAC6; HDAC1 IC50 / HDAC6 IC50): 909 fold
IC50 (human recombinant HDAC6; [2]): 55 nM

CN1CCC(F)(c2cn(Cc3ccc(-c4nnc(C(F)F)o4)cn3)nn2)CC1 [Compound 4005, 2-(difluoromethyl)-5-(6-((4-(4-fluoro-1-methylpiperidin-4-yl)-1H-1,2,3-triazol-1-yl)methyl)pyridin-3-yl)-1,3,4-oxadiazole]
IC50 (human recombinant HDAC1; [1]): > 50000 nM
HDAC6 selectivity (fold) (human recombinant HDAC6; HDAC1 IC50 / HDAC6 IC50): 379 fold
IC50 (human recombinant HDAC6; [2]): 132 nM

CN(C)Cc1c(-c2ccccc2)nnn1Cc1ccc(-c2nnc(C(F)F)o2)cn1 [Compound 4490, 1-(1-((5-(5-(difluoromethyl)-1,3,4-oxadiazol-2-yl)pyridin-2-yl)methyl)-4-phenyl-1H-1,2,3-triazol-5-yl)-N,N-dimethylmethanamine]
IC50 (human recombinant HDAC1; [1]): > 50000 nM
HDAC6 selectivity (fold) (human recombinant HDAC6; HDAC1 IC50 / HDAC6 IC50): 571 fold
IC50 (human recombinant HDAC6; [2]): 87.5 nM

Fc1cc(-c2nnc(C(F)F)o2)cnc1Cn1cc(-c2ccc3[nH]ncc3c2)nn1 [Compound 18920, 2-(6-((4-(1H-indazol-5-yl)-1H-1,2,3-triazol-1-yl)methyl)-5-fluoropyridin-3-yl)-5-(difluoromethyl)-1,3,4-oxadiazole]
IC50 (human recombinant HDAC1; [3]): > 50000 nM
HDAC6 selectivity (fold) (human recombinant HDAC6; HDAC6 over HDAC1): 1190 fold
IC50 (human recombinant HDAC6; [4]): 42 nM

FC(F)c1cccc(-c2cn(Cc3ccc(-c4nnc(C(F)F)o4)cn3)nn2)c1 [Compound 4489, 2-(difluoromethyl)-5-(6-((4-(3-(difluoromethyl)phenyl)-1H-1,2,3-triazol-1-yl)methyl)pyridin-3-yl)-1,3,4-oxadiazole]
IC50 (human recombinant HDAC1; [1]): > 50000 nM
HDAC6 selectivity (fold) (human recombinant HDAC6; HDAC1 IC50 / HDAC6 IC50): 3401 fold
IC50 (human recombinant HDAC6; [2]): 14.7 nM

CC(C)N1CC(c2cccc(-c3cn(Cc4ccc(-c5nnc(C(F)F)o5)cc4F)nn3)c2)C1 [Compound 4461, 2-(difluoromethyl)-5-(3-fluoro-4-((4-(3-(1-isopropylazetidin-3-yl)phenyl)-1H-1,2,3-triazol-1-yl)methyl)phenyl)-1,3,4-oxadiazole]
IC50 (human recombinant HDAC1; [1]): > 50000 nM
HDAC6 selectivity (fold) (human recombinant HDAC6; HDAC1 IC50 / HDAC6 IC50): 759 fold
IC50 (human recombinant HDAC6; [2]): 65.8 nM

Fc1cc(-c2nnc(C(F)F)o2)cnc1Cn1cc(-c2cccc(C3CCN(C4CCC4)CC3)c2)nn1 [Compound 18870, 2-(6-((4-(3-(1-cyclobutylpiperidin-4-yl)phenyl)-1H-1,2,3-triazol-1-yl)methyl)-5-fluoropyridin-3-yl)-5-(difluoromethyl)-1,3,4-oxadiazole]
IC50 (human recombinant HDAC1; [3]): > 50000 nM
HDAC6 selectivity (fold) (human recombinant HDAC6; HDAC6 over HDAC1): 1123 fold
IC50 (human recombinant HDAC6; [4]): 44.5 nM

CN1CCN(c2ccc(-c3cn(Cc4ccc(-c5nnc(C(F)F)o5)cc4F)nn3)cn2)CC1 [Compound 16789, 2-(difluoromethyl)-5-(3-fluoro-4-((4-(6-(4-methylpiperazin-1-yl)pyridin-3-yl)-1H-1,2,3-triazol-1-yl)methyl)phenyl)-1,3,4-oxadiazole]
IC50 (human recombinant HDAC1; [3]): > 50000 nM
HDAC6 selectivity (fold) (human recombinant HDAC6; HDAC6 over HDAC1): 628 fold
IC50 (human recombinant HDAC6; [4]): 79.5 nM

CN1CC(c2cccc(-c3cn(Cc4ccc(-c5nnc(C(F)F)o5)cc4F)nn3)c2)C1 [Compound 4460, 2-(difluoromethyl)-5-(3-fluoro-4-((4-(3-(1-methylazetidin-3-yl)phenyl)-1H-1,2,3-triazol-1-yl)methyl)phenyl)-1,3,4-oxadiazole]
IC50 (human recombinant HDAC1; [1]): > 50000 nM
HDAC6 selectivity (fold) (human recombinant HDAC6; HDAC1 IC50 / HDAC6 IC50): 148 fold
IC50 (human recombinant HDAC6; [2]): 337 nM

OC1(c2cn(Cc3ccc(-c4nnc(C(F)F)o4)cn3)nn2)CCOC1 (stereo not drawn) [Compound 4277, 3-(1-((5-(5-(difluoromethyl)-1,3,4-oxadiazol-2-yl)pyridin-2-yl)methyl)-1H-1,2,3-triazol-4-yl)tetrahydrofuran-3-ol]
IC50 (human recombinant HDAC1; [1]): > 50000 nM
HDAC6 selectivity (fold) (human recombinant HDAC6; HDAC1 IC50 / HDAC6 IC50): 212 fold
IC50 (human recombinant HDAC6; [2]): 235 nM

Fc1cc(-c2nnc(C(F)F)o2)ccc1Cn1cc(-c2csc(CN3CC[C@@H](F)C3)c2)nn1 [Compound 18180, (R)-2-(difluoromethyl)-5-(3-fluoro-4-((4-(5-((3-fluoropyrrolidin-1-yl)methyl)thiophen-3-yl)-1H-1,2,3-triazol-1-yl)methyl)phenyl)-1,3,4-oxadiazole]
IC50 (human recombinant HDAC1; [3]): > 50000 nM
HDAC6 selectivity (fold) (human recombinant HDAC6; HDAC6 over HDAC1): 672 fold
IC50 (human recombinant HDAC6; [4]): 74.3 nM

CC(C)N1Cc2ccc(-c3cn(Cc4ccc(-c5nnc(C(F)F)o5)cn4)nn3)cc2C1 [Compound 4541, 2-(difluoromethyl)-5-(6-((4-(2-isopropylisoindolin-5-yl)-1H-1,2,3-triazol-1-yl)methyl)pyridin-3-yl)-1,3,4-oxadiazole]
IC50 (human recombinant HDAC1; [3]): > 50000 nM
HDAC6 selectivity (fold) (human recombinant HDAC6; HDAC6 over HDAC1): 1470 fold
IC50 (human recombinant HDAC6; [4]): 34 nM

FC(F)c1nnc(-c2ccc(Cn3cc(-c4cccc5c4CN(C4CCC4)C5)nn3)nc2)o1 [Compound 4598, 2-(6-((4-(2-cyclobutylisoindolin-4-yl)-1H-1,2,3-triazol-1-yl)methyl)pyridin-3-yl)-5-(difluoromethyl)-1,3,4-oxadiazole]
IC50 (human recombinant HDAC1; [3]): > 50000 nM
HDAC6 selectivity (fold) (human recombinant HDAC6; HDAC6 over HDAC1): 1108 fold
IC50 (human recombinant HDAC6; [4]): 45.1 nM

FC(F)c1nnc(-c2ccc(Cn3cc([C@@H]4CCCN4C4COC4)nn3)nc2)o1 [Compound 4026, (S)-2-(difluoromethyl)-5-(6-((4-(1-(oxetan-3-yl)pyrrolidin-2-yl)-1H-1,2,3-triazol-1-yl)methyl)pyridin-3-yl)-1,3,4-oxadiazole]
IC50 (human recombinant HDAC1; [1]): > 50000 nM
HDAC6 selectivity (fold) (human recombinant HDAC6; HDAC1 IC50 / HDAC6 IC50): 189 fold
IC50 (human recombinant HDAC6; [2]): 263 nM

Fc1cc(-c2nnc(C(F)F)o2)cnc1Cn1cc(-c2ccc3cn[nH]c3c2)nn1 [Compound 18919, 2-(6-((4-(1H-indazol-6-yl)-1H-1,2,3-triazol-1-yl)methyl)-5-fluoropyridin-3-yl)-5-(difluoromethyl)-1,3,4-oxadiazole]
IC50 (human recombinant HDAC1; [3]): > 50000 nM
HDAC6 selectivity (fold) (human recombinant HDAC6; HDAC6 over HDAC1): 830 fold
IC50 (human recombinant HDAC6; [4]): 60.2 nM

Fc1ccc(-c2cn(Cc3ccc(-c4nnc(C(F)F)o4)cn3)nn2)cc1F [Compound 3737, 2-(difluoromethyl)-5-(6-((4-(3,4-difluorophenyl)-1H-1,2,3-triazol-1-yl)methyl)pyridin-3-yl)-1,3,4-oxadiazole]
IC50 (human recombinant HDAC1; [1]): > 50000 nM
HDAC6 selectivity (fold) (human recombinant HDAC6; HDAC1 IC50 / HDAC6 IC50): 1043 fold
IC50 (human recombinant HDAC6; [2]): 47.9 nM

CCC(=O)N1CCN(c2cccc(-c3cn(Cc4ccc(-c5nnc(C(F)F)o5)cc4)nn3)c2)CC1 [Compound 4372, 1-(4-(3-(1-(4-(5-(difluoromethyl)-1,3,4-oxadiazol-2-yl)benzyl)-1H-1,2,3-triazol-4-yl)phenyl)piperazin-1-yl)propan-1-one]
IC50 (human recombinant HDAC1; [1]): > 50000 nM
HDAC6 selectivity (fold) (human recombinant HDAC6; HDAC1 IC50 / HDAC6 IC50): 724 fold
IC50 (human recombinant HDAC6; [2]): 69 nM

FC(F)c1nnc(-c2ccc(Cn3cc(-c4cccc(C5CN(C6COC6)C5)c4)nn3)nc2)o1 [Compound 4505, 2-(difluoromethyl)-5-(6-((4-(3-(1-(oxetan-3-yl)azetidin-3-yl)phenyl)-1H-1,2,3-triazol-1-yl)methyl)pyridin-3-yl)-1,3,4-oxadiazole]
IC50 (human recombinant HDAC1; [3]): > 50000 nM
HDAC6 selectivity (fold) (human recombinant HDAC6; HDAC6 over HDAC1): 2032 fold
IC50 (human recombinant HDAC6; [4]): 24.6 nM
